Assay results from patent publication US20190169620A1, “Treatment of HER2-Dependent Cancers by SORL1 Inhibition” (TURUN YLIOPISTO, priority 2017, published 2019).
Entries after “also recorded” stand apart in the source; their conditions may differ.

Legend:
HER2 = experiment: Immunofluorescent imaging of HER2 localization; assay type: cell-based; details: BT474, primaquine 24 h, 0.3 and 0.6 mM
Procedure: (§1) Cells were plated on ibidi 8-well dishes or in some cases in […] ibidi dishes. Cells were fixed with 4% paraformaldehyde (PFA) in phosphate buffer saline (PBS) for 10 min at room temperature. PFA was quenched by incubating with 50 mM NH4Cl for 15 min at room temperature. Cells were blocked and permeabilized with 30% horse serum in PBS +0.3% Triton X-100 15 min at room temperature. Primary antibodies were diluted in 30% horse serum and incubated over night at +4° C. HER2 staining was performed with Herceptin (Roche) or with mouse monoclonal antibody (ThermoScientific; MA5-14057) in dilution of 1:300, LAMP1 antibody (Santa Cruz; SC-20011 (H4A3)) was diluted 1:50, rabbit monoclonal SORLA antibody (CM Petersen Lab, Arhus University) in dilution of 1:300, goat anti-EEA-1 (Santa Cruz; sc-6415) 1:50, goat anti-VPS35 (Abcam; ab10099) 1:300, mouse anti-CD63 (Hybridoma Bank; H5C6) 1:300 and rabbit anti-TGN46 (Abcam; ab50595) 1:300. After primary antibody incubation, cells were washed three times with PBS for 5 min at room temperature and then secondary antibodies were diluted 1:300 in 30% horse serum. […]

[1] = tested on: 5637 bladder cancer cells; experiment: Colony formation assay of SORLA silenced 5637 treated with CADs; assay type: cell-based; details: drug for 7 days combined with SORLA silencing
Procedure: Transient SORLA (with two individual siRNAs) or scramble silencing was performed for 5637 bladder cancer cells. After 48 hours of silencing, 20 000 cells per well were plated on colony formation assay on 12-well plate. […] DMSO was used as control. Cells were treated for 7 days and drugs including media was replenished between 3-4 days of culture. After 7 days, cells were stained with 0.2% Crystal Violet in 10% EtOH for 10 min RT. Cells were washed extensively with PBS and dried. Wells were scanned and confluency was measured by using Image J colony area plug-in.

[2] = tested on: HER2-amplified breast cancer cells
Procedure: Transient SORLA (with two individual siRNAs) or scramble silencing was performed for 5637 bladder cancer cells. After 48 hours of silencing, 3000 cells per well were plated on 96-well plate. Cells were treated with increasing concentration of Ebastine and Loratadine for 48 hours. After 48 hours of treatment, WST-8 reagent (Sigma, 96992) was added 10 μl/well and absorbance 450 nm was measured by plate reader after 1-2 h of incubation at 37° C. with 5% CO2. Medium without cells was used as background and the A450 of background was subtracted from the samples. Relative viability was calculated by normalizing the A450 values of drug treated to DMSO treated cells. IC50 values were calculated by GraphPad using nonlinear regression to fit the data to the log(inhibitor) vs. response (variable slope) curve.

MDA-MB-361 cells = experiment: Proliferation assay (WST-8), MDA-MB-361; assay type: cell-based; details: MDA-MB-361, lapatinib treated
Procedure: Cells were plated on 96-well plate (3000 cells/well, 4 replicates per sample) in volume of 100 μl.
Transfection of siRNAs to silence SORLA or HER2 protein expression: Cells were seeded on 6-well plate day before the transfection (300 000-500 000 cells/well). On next day, transfection mix containing siRNA (20-40 nM of targeting SORLA, 40 nM of HER2 targeting siRNA and 20-40 nM scramble siRNA) and RNAiMAX transfection reagent (Manufacturer) in OptiMEM medium was prepared. The mix was allowed to stand for 15 min at room temperature before adding to the cells on 6 well plate. After 48 hours of transfection cells were used for experiments.

BT474 cells = experiment: Cell cycle analysis (propidium iodide, flow cytometry); assay type: cell-based; details: BT474, 0.5 μM lapatinib for 24 hours; stated as the effect SORLA silencing mimics
Procedure: BT474 transfected with control siRNA and with two individual siRNA against SORLA (#3 and #4) and BT474 treated with DMSO or with 0.5 μM Lapatinib for 24 hours were trypsinized, spun down and suspended in ice cold PBS (1 ml). Cells were fixed with 70% EtOH (ice cold) by adding 3 ml of 70% EtOH in dropwise manner while gently vortexin the cells. Cells were then stored at +4° C. until propidium iodide (PI) staining was performed. PI (Sigma) staining was performed by preparing 25 μg/ml PI solution in PBS with RNAase A (Qiagen). Cells were washed twice with PBS. After that cells were suspended in PI solution and incubated 10 minutes on ice. Samples were protected from light and kept on ice until flow cytometry analysis. Samples were run with LSR II and cell cycle analysis was performed with FlowJo.

[3] = tested on: LAMP1- and CD63 (LAMP3)-positive lysosomes; experiment: Immunofluorescent imaging of lysosome aggregation (LAMP1, CD63); assay type: cell-based; details: Lapatinib 24 h, 0.5 mM
Procedure: as §1

TFEB and LAMP1 = experiment: Western blot analysis of TFEB and LAMP1 protein levels; assay type: cell-based; details: SKBR3, lapatinib treatment (24 h)
Procedure: Protein extracts were sonicated (0.5 min ON/0.5 min OFF totally 5 min with full power) and protein levels were measured by Bio-Rad protein quantification kit. Sample buffer was added and samples were boiled for 5 min at 95° C. heat block. Proteins were separated on 4-20% gradient gel (Bio-Rad) and transferred into nitrocellulose membranes (Bio-Rad) by semi-dry turbo blot (Bio-Rad). Membranes were blocked with 5% milk powder in TBST for 1 hour at room temperature. Primary antibodies were diluted in blocking buffer (ThermoScientific) and PBS (1:1 ratio) mix and incubated over night at +4° C. Following primary antibodies were used: HER2 (Thermo Scientific, MA5-14057), SORLA (BD Transduction Lab, 612633), α-tubulin (Hybridoma Bank).

## COc1cc(NC(C)CCCN)c2ncccc2c1 (stereo not shown) [primaquine]
HER2
  HER2 localization: accumulation of intracellular HER2

## CC(C)(C)c1ccc(C(=O)CCCN2CCC(OC(c3ccccc3)c3ccccc3)CC2)cc1 [Ebastine]
[1]
  5637 bladder cancer colony growth: significant synergistic effects
[2]; Ebastine 48 hours in combination with SORLA silencing, irrespective of anti-HER2 therapy sensitivity
  cell viability: synergistic effect on cell viability; also recorded: significantly decreased cell viability
[2]; Ebastine combined with SORLA silencing
  cell death in vitro: significantly increased cell death

## CS(=O)(=O)CCNCc1ccc(-c2ccc3ncnc(Nc4ccc(OCc5cccc(F)c5)c(Cl)c4)c3c2)o1 [lapatinib]
MDA-MB-361 cells
  proliferation / drug sensitivity: resistant to Lapatinib
BT474 cells
  cell cycle distribution: increased accumulation of cells at G1/G0 and decreased number of cells in S phase
[3]; BT474 (sensitive)
  lysosome aggregation: induced lysosome aggregation
[3]; MDA-MB-361 (resistant)
  lysosome aggregation: not in the resistant MDA-MB-361 cells
TFEB and LAMP1
  LAMP1 protein levels: similarly increased

## CCOC(=O)N1CCC(=C2c3ccc(Cl)cc3CCc3cccnc32)CC1 [Loratadine]
[1]
  5637 bladder cancer colony growth: significant synergistic effects
